Converted amounts (≈) assume the structure as drawn. Like-named read-outs stand apart in the source and are kept apart here.
Columns and labels:
[1] = test system: human foreskin fibroblasts (HFF-1); test: Cell viability, Alamar Blue assay; format: cell-based; conditions: 72 h incubation, error SEM n = 2, read-out: IC50, Mammalian Toxicity in HFF-1
Method: Cell Culture. HFF-1 cells were obtained from ATCC. HFF-1 cells were grown in DMEM with 15% fetal bovine serum (Gemini Benchmark, Cat #100-106), 100 U/mL penicillin, and 100 μg/mL streptomycin. All cells were cultured at 37° C. in a 5% CO2 environment. Media was prepared by the University of Illinois School of Chemical Sciences Cell Media Facility.
Cell Viability. Cells were harvested, seeded in a 96 well-plate and allowed to adhere. Cells were treated with investigational compounds in DMSO (1% final concentration). Cells were incubated for 72 h before viability was assessed by the Alamar Blue Assay. Raptinal ([…]) was used as a dead control.

[2] = test system: S. aureus 29213; test: MIC shift with 50% human serum; format: cell-based; conditions: S. aureus 29213, 50% human serum vs none
Method: Antimicrobial Susceptibility Tests. Susceptibility testing was performed in biological triplicate, using the micro-dilution broth method as outlined by the Clinical and Laboratory Standards Institute. […] Human serum (Ultrafiltrate, unspecified gender, 30K Dalton membrane filtered) was purchased from BioIVT (Hicksville, NY).

[3] = test system: S. aureus ATCC 29213; test: Resistance frequency, large inoculum method; format: cell-based
Method: Selection of Resistant Mutants. Resistant mutants were selected via the large inoculum method. Briefly, S. aureus ATCC 29213 (1×10^9 CFU) were plated on 100 mm plates of LB agar containing 4, 2, 1, 0.5, and 0.25 μg/mL.

[4] = Mouse liver microsome stability assay; format: in vitro ADME; conditions: 3 h at 37° C., LC-MS/MS, ± SEM of 3 biological replicates
Method: Mouse Liver Microsome Stability Assay. A mixture of PBS (pH 7.4), NADPH regenerating system solution A (Corning Life Sciences), and NADPH regenerating system solution B (Corning Life Sciences) was incubated at 37° C. in a shaking incubator for 5 min. Next, compound was added in DMSO (final concentration 50 μM, 0.5% DMSO) before ice-cold mouse liver microsomes (Thermo Fisher, male CD-1 mice, pooled) were added (final protein concentration of 1 mg/mL). An aliquot was immediately removed, quenched with an equal volume of 100 μM internal standard and centrifuged at 13,000 rcf for 3 min. The reactions were incubated at 37° C. in a shaking incubator for 3 h. A second aliquot was removed and quenched. Samples were analyzed with the 5500 QTRAP LC/MS/MS system (Sciex, Framingham, MA) in Metabolomics Lab of Roy J. Carver Biotechnology Center, University of Illinois at Urbana-Champaign. Software Analyst 1.6.2 was used for data acquisition and analysis. The 1200 series HPLC system (Agilent Technologies, Santa Clara, CA) includes a degasser, an autosampler, and a binary pump. The LC separation was performed on an Agilent Sb-Aq column (4.6×50 mm, […]) with mobile phase A (0.1% formic acid in water) and mobile phase B (0.1% formic acid in acetonitrile). The flow rate was 0.3 mL/min. The linear gradient was as follows: 0-3 min, 100% A; 10-16 min, 5% A; 16.5-22 min, 100% A. The autosampler was set at 10° C. The injection volume was 1 μL. Mass spectra were acquired under both positive (ion spray voltage was +5500 V) and negative (ion spray voltage was −4500 V) electrospray ionization (ESI). The source temperature was 450° C. The curtain gas, ion source gas 1, and ion source gas 2 were 33, 65, and 60 psi, respectively. Multiple reaction monitoring (MRM) was used for quantitation.

[5] = test system: S. aureus ATCC 29213; test: MIC by micro-dilution broth method (CLSI); format: cell-based
[6] = Mouse MTD / tolerability; conditions: mouse, in vivo, ip, 50 mg/kg
Method: The protocol was approved by the IACUC at the University of Illinois at Urbana-Champaign (Protocol Number: 16144 and 19181). In these studies, 10- to 12-week-old female C57BL/6 mice purchased from Charles River were used. The maximum tolerated dose (MTD) of single compound was determined first. […] All the mice were monitored for signs of toxicity for 2 weeks. For multiple doses, the compound was given by daily IP for 4 consecutive days, and mice were monitored for signs of toxicity for 1 month. MTD was the highest dosage with acceptable toxicity (e.g., <20% weight loss).

| Compound | IC50 [1] [µM] | IC50 ([1]; Homo sapiens, HFF-1, 72 h) [µM] | Fold Change Increase in MIC with 50% Human Serum [2] [X] | Resistance frequency relative to FA ([3]; head-to-head with FA, 2×-32× the MIC) | Resistance frequency relative to FA ([3]; only at 32× the MIC) | Metabolic Stability in Mouse Liver Microsomes (percent remaining) [4] [%] | Antibacterial activity relative to FA ([5]; S. aureus ATCC 29213 MIC) | MIC ([5]; Staphylococcus aureus, ATCC29213, WT S. aureus ATCC 29213, n = 3, read-out: MIC Without Human Serum) [µg/mL] | Tolerability [6] |
| --- | --- | --- | --- | --- | --- | --- | --- | --- | --- |
| CC(=O)O[C@H]1C[C@@]2(C)[C@@H](C[C@@H](O)[C@H]3[C@@]4(C)CC[C@@H](O)[C@@H](C)[C@@H]4CC[C@@]32C)/C1=C(\CCC=C1CCCCC1)C(=O)O [Compound 26, (Z)-2-((3R,4S,5S,8S,9S,10S,11R,13R,14S,16S)-16-acetoxy-3,11-dihydroxy-4,8,10,14-tetramethylhexadecahydro-17H-cyclopenta[a]phenanthren-17-ylidene)-5-cyclohexylidenepentanoic acid] | 53 ± 4 | > 50 | 16 | improvement in resistance frequency relative to FA | improvement | 61 ± 1 | equipotent activity to FA | 0.125 (≈ 0.225 µM) |  |
| CC(=O)O[C@H]1C[C@@]2(C)[C@@H](C[C@@H](O)[C@H]3[C@@]4(C)CC[C@@H](O)[C@@H](C)[C@@H]4CC[C@@]32C)/C1=C(\CCC=C(C)C)C(=O)O [Sodium fusidate, reference compound] |  |  |  |  |  |  |  |  | well tolerated |

— US20240109934A1, “ANTIBIOTICS WITH IMPROVED DRUG RESISTANCE PROFILE” (priority 2021, published 2024)
